Consider four compounds from patent US5565455A, “Method for treating substance abuse disorders” (priority 1992, dated 1996).

The Ki is the equilibrium dissociation constant of an inhibitor or competing ligand from its target. In general, IC50 refers to the concentration that inhibits the measured activity by half. Lower therefore signals inhibition by little substance.

Counter-ions that a name gives are not always drawn. Like-named read-outs stand apart in the source and are kept apart here.

In series [1] the target is T1, 5-HT1A (Homo sapiens, UniProt P08908).
T1 sequence (P08908 1-422): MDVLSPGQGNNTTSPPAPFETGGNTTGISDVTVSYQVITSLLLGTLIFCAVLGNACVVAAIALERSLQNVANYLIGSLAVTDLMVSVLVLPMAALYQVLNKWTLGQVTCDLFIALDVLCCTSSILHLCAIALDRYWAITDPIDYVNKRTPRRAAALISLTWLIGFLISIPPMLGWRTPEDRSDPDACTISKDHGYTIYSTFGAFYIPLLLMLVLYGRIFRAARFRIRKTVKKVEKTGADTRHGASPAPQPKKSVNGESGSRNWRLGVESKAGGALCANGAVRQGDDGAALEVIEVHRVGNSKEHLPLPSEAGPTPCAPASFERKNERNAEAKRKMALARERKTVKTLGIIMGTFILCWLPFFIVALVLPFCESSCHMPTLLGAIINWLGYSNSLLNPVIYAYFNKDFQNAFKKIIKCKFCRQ
Briefly: biochemical. The series is classed as binding.

The test system of series [2] is 5-HT reuptake, synaptosomes from rat frontal cortex. Put plainly: Inhibition of reuptake of [3H-5-HT] by synaptosomes from rat frontal cortex. The following applies: method of Shank et al. The series is classed as biochemical.
Series [3] has as its system Sprague-Dawley rats induced to drink alcohol chronically. Put plainly: Alcohol drinking in Sprague-Dawley rats induced by cyanamide injections. The series is classed as in vivo, rat. How it is done: To further illustrate the useful pharmacological properties of FG5893, the effect of FG5893 administered systemically was determined in Sprague-Dawley rats induced to drink alcohol chronically by a series of intraperitoneal injections of cyan-amide according to experimental procedures described previously (Critcher, E. C. and R. D. Myers, Alcohol 4:347-353, 1987). Intakes of food and body weights were recorded.
FG5893 in a dose of 0.5, 1.0 and 2.5 mg/kg was administered twice a day for three consecutive days. […] This finding is notable because drugs that attenuate the preference for alcohol consumed in a concentration of pharmacological consequence typically impair the ingestion of food.

In series [4] the target is 5-HT2 (Homo sapiens, UniProt P28223). Put plainly: Drug affinity for 5-HT2 receptor, radioligand 3H-ketanserin, cerebral cortex.
For series [5], the system named is voluntary ethanol consumption in rats. The following applies: cited from earlier work.
Series [6] relates to alcohol-dependent individuals. The conditions noted are these: cited from earlier work.
The test system of series [7] is consumption of alcohol by monkeys. The following applies: cited from earlier work.
[8] abbreviates: 0.5, 1.0 and 2.5 mg/kg twice a day for three consecutive days, all doses.
Setting [9] is: clinical trial versus placebo in alcohol-dependent individuals.

Sequence of 5-HT2 (P28223 whole entry, species assumed): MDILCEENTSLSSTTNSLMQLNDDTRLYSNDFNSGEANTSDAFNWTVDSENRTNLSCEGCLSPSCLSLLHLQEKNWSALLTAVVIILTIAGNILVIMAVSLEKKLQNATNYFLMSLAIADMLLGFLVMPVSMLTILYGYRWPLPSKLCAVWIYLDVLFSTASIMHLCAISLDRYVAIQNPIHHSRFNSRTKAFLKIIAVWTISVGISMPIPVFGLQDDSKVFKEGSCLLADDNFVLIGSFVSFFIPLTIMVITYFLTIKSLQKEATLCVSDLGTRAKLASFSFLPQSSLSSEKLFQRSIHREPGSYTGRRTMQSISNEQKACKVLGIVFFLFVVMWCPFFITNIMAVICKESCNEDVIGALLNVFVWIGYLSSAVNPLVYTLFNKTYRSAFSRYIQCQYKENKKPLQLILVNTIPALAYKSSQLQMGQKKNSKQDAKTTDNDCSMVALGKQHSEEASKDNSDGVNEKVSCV

`COC(=O)c1cccnc1N1CCN(CCCC(c2ccc(F)cc2)c2ccc(F)cc2)CC1` [FG5893, 2-[4-[4,4-bis(4-fluorophenyl)butyl]-1-piperazinyl]-3-pyridinecarboxylic acid methyl ester dihydrochloride ethylat] registered an inhibition constant (Ki) in series [1] (Radioligand 3H-8-OH-DPAT, tissue hippocampus) of 0.0007 µM. This compound yielded an IC50 in series [2] of 0.08 µM. In series [3] (setting [8]), the “intake of alcohol, absolute g/kg” value is given as “significantly reduced” and the “proportion of alcohol to total fluid intake” value is “significantly reduced”. Also, in series [3] (1.0 and 2.5 mg/kg doses, two 4-day tests immediately following the injection sequence and after a 40-day interval), the “alcohol consumption after the injection sequence” value is “continued to suppress alcohol consumption”. In series [3] (during or after administration), the body weights entry is reported as “Neither body weights nor intakes of food of the rats were affected” and the intakes of food entry was “Neither body weights nor intakes of food of the rats were affected”. The compound further registered a Ki in series [4] of 0.004 µM.

With `CCNC(=O)N1CCN(CCCC(c2ccc(F)cc2)c2ccc(F)cc2)CC1` [Amperozide], the inhibitory constant (Ki) in series [1] turned out to be 0.805 µM; in series [4], 0.017 µM. This compound also had an IC50 in series [2] of 0.32 µM. In addition, the “consumption of food and level of body weight” value in series [5] (rat, in vivo) is “without affecting”. For the same compound, the “intake of alcohol in rats” value in series [5] (rats) is given as “significantly attenuate”.

On to `CN(C)C/C=C(/c1ccc(Br)cc1)c1cccnc1` [Zimelidine], for which the IC50 in series [2] is 0.12 µM. Also, in series [6] (human trials), the “number of abstinent days” value was “increase” and the “number of daily drinks” value is given as “slight reduction”. Further, the “ingestion of food and alcohol” value in series [5] (concomitantly) is recorded as “attenuate”. In addition, the “voluntary ethanol consumption in rats” value in series [5] (rats) is recorded as “potent inhibitory effect”.

Consider `O=C1CC2(CCCC2)CC(=O)N1CCCCN1CCN(c2ncccn2)CC1` [Buspirone], for which, in series [6] (setting [9]), the drop-out rate result is given as “lower drop-out rate” and the signs of craving result is reported as “fewer signs of craving”. Further, the “consumption of alcohol by monkeys” value in series [7] is “attenuate significantly”.
